Data as given in article PMC8187206 (Pharmacological Reports, 2020).

Columns and labels:
[1] = Plasma pharmacokinetics of sorafenib and sorafenib N-oxide after single oral sorafenib in diabetic and healthy rats (HPLC-UV, non-compartmental analysis); type: in vivo, Wistar-strain rats; details: single oral sorafenib 100 mg/kg
Procedure: The experimental protocol for this study was reviewed and approved by the Local Ethics Committee. All procedures were performed in accordance with European Union regulations concerning the handling and use of laboratory animals. The study was conducted following the principles of the 3Rs (Replacement, Reduction and Refinement). Adult male Wistar-strain rats (weight 400–445 g) were used in the study. The animals were maintained under standard breeding conditions with a 12 h light–12 h dark cycle at constant room temperature (23 ± 2 °C), relative humidity (55 ± 10%) and given ad libitum access to feed and water. After acclimatisation the rats were randomly assigned into two groups: the diabetic group (DG) (n = 8) and the healthy group (HG) (n = 8).
(§1) DG rats were fed a high-fat diet (Labofeed B, 60% fat; Morawski, Poland) for a period of 4 weeks to induce insulin resistance. After 2 weeks of dietary manipulation the animals were intraperitoneally injected with STZ (35 mg/kg body weight in 1000 μL of sterile citrate buffer, pH 4.2). Citrate buffer was injected as a vehicle in HG. The high-fat diet was continued for subsequent 2 weeks in the DG. The rats in the HG were fed with standard diet (Labofeed B, 8% fat) and water ad libitum. The rats with the blood glucose level ≥ 250 mg/dL were considered diabetic and qualified for this study. The percentage reduction of the glucose levels in the rats was calculated using the following formula: %Reductionglucose=(V0-Vt)·100/V0, where V0 glucose concentration at baseline and Vt glucose concentration at the time of maximum reduction.
(§2) After injecting streptozotocin 10% glucose solution was additionally administered for 24 h to prevent hypoglycaemia. […] The drug was dissolved in 1 mL 10% DMSO and administered orally by means of a gastric feeding tube. 0.1 mL blood samples were collected from rats by cutting a piece of their tails. The samples were collected at the following time points: 0, 0.5, 1, 1.5, 2, 3, 4, 5, 6, 7, 8, 10, 12, 24, 30, 48, 72, 96 h. Each time on blood collection glycaemia was measured.
The validation was performed according to the guidelines of the European Medicines Agency (EMA) concerning validation of bioanalytical methods. Chromatographic analysis was conducted on a Alliance® system with 2695 Separation Module and a Dual Lambda (λ) absorbance detector (Waters Corporation®, USA). Data acquisition was performed using Empower software v. 1154. Separation was carried out on Symmetry® C8 column (250 mm × 4.6 mm, 5.0 µm particle size, Waters Corporation®, USA). The column temperature was maintained at 25 °C. The mobile phase consisted of ammonium acetate 0.1 M pH = 3.4 (adjusted with glacial acetic acid) (solvent A) and acetonitrile (solvent B). The following gradient was used: the percentage A was decreased from 60 to 29%, while at the same time over 21 min percentage B increased linearly from 40 to 71%. The UV detection wavelength was set at 265 nm, and the injection volume was 20 µL. The volume of the analyzed rat plasma was 25 µL. The samples were determined using liquid–liquid extraction.
The maximum plasma concentration (Cmax) and the time to reach the maximum plasma concentration (tmax) were obtained directly from the concentration—time data. The elimination rate constant (kel) was estimated from the slope of the terminal linear segment of the log mean concentration-time plot using the automatic best-fitting option in WinNonlin 8.1. The elimination half-life (t1/2kel) was calculated from ln2/kel. The area under the concentration-time curve from zero to the time of the last concentration measured (AUC0−t) was calculated by a linear trapezoidal rule and the residual area under the curve (AUCres) was estimated by extrapolation from the last concentration measured (Clast) to infinity using Clast/kel ratio. The area under curve from zero to infinity (AUC0−∞) was computed as a sum of AUC0−t and AUCres.

[2] = cited from earlier work
[3] = Effect of a single sorafenib dose on blood glucose level (glycaemia); type: in vivo, Wistar-strain rats; details: control group (healthy rats), single oral sorafenib 100 mg/kg
Procedure: as §1, §2

[4] = test system: streptozotocin-induced diabetic rats; test: as above; type: in vivo, Wistar-strain rats; details: DG group (diabetic rats), single oral sorafenib 100 mg/kg
Procedure: as §1, §2

patients = details: multiple administration of the TKI; cited from earlier work
[5] = diabetic animals (streptozotocin-induced for sunitinib and lapatinib, alloxan-induced rabbits for erlotinib); cited from earlier work
[6] = increase in diabetic versus healthy rats

| SMILES | AUC0−t higher in the DG when compared to the HG [1, 6] | AUC0−∞ higher in the DG when compared to the HG [1, 6] | Cmax higher in the DG when compared to the HG [1, 6] | Cmax in diabetic animals [5] | total exposure in diabetic animals [5] | other results |
| --- | --- | --- | --- | --- | --- | --- |
| CNC(=O)c1cc(Oc2ccc(NC(=O)Nc3ccc(Cl)c(C(F)(F)F)c3)cc2)cc[n+]1[O-] [Sorafenib N-oxide, sorafenib N-oxide] | 112.55% | 91.87% | 119.57% | – | – | AUMC0-t increase in the DG [1, 6]: 134.31%; AUMC0-∞ increase in the DG [1, 6]: 85.33%; share of circulating substances at steady state [2]: 9–16% |
| CNC(=O)c1cc(Oc2ccc(NC(=O)Nc3ccc(Cl)c(C(F)(F)F)c3)cc2)ccn1 [Sorafenib] | 66.4% | 56.0% | 88.7% | – | – | glucose levels [3]: did not decrease; time of maximum reduction of glycaemia after the sorafenib administration [4]: 1.5 to 11 h; maximum reduction of glycaemia ([4]; (V0-Vt)·100/V0): 11.2–50.8%; Cl/F decreased in diabetic animals ([1]; decrease in diabetic versus healthy rats): 40%; effect on blood glucose after multiple administration (patients): hypoglycaemic effect |
| C#Cc1cccc(Nc2ncnc3cc(OCCOC)c(OCCOC)cc23)c1 [erlotinib] | – | – | – | significantly increased | significantly increased | – |
| CS(=O)(=O)CCNCc1ccc(-c2ccc3ncnc(Nc4ccc(OCc5cccc(F)c5)c(Cl)c4)c3c2)o1 [lapatinib] | – | – | – | significantly increased | significantly increased | – |
| CCN(CC)CCNC(=O)c1c(C)[nH]c(/C=C2\C(=O)Nc3ccc(F)cc32)c1C [sunitinib] | – | – | – | significantly increased | significantly increased | – |
